Results taken from patent US9663513B2, “Pyrimidine PDE10 inhibitors” (Merck Sharp & Dohme Corp., priority 2012, dated 2017).
Values belong to the molecule of their own block, whether it stands above or below them.

Molecular target: human PDE10A2 (Homo sapiens (Human), UniProt Q9Y233)
Assay: PDE10 fluorescence polarization (IMAP FP) inhibition assay
Assay type: biochemical
Conditions: human PDE10A2 from transfected AD293 cells; FAM-labeled cAMP 50 nM; apparent inhibition constant; read-out: PDE10A Ki
Method in brief: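 Cytoplasmic lysate of AD293 cells transiently expressing human PDE10A2 (enzyme level giving 20% conversion) incubated with 50 nM FAM-cAMP in pH 7.2 Tris/MgCl2 buffer, 30 min at room temperature. IMAP binding solution added, FP read after ≥1 h; 10-point 3-fold compound titrations fitted to a four-parameter equation.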

Sequence of human PDE10A2 (Q9Y233 267-1055): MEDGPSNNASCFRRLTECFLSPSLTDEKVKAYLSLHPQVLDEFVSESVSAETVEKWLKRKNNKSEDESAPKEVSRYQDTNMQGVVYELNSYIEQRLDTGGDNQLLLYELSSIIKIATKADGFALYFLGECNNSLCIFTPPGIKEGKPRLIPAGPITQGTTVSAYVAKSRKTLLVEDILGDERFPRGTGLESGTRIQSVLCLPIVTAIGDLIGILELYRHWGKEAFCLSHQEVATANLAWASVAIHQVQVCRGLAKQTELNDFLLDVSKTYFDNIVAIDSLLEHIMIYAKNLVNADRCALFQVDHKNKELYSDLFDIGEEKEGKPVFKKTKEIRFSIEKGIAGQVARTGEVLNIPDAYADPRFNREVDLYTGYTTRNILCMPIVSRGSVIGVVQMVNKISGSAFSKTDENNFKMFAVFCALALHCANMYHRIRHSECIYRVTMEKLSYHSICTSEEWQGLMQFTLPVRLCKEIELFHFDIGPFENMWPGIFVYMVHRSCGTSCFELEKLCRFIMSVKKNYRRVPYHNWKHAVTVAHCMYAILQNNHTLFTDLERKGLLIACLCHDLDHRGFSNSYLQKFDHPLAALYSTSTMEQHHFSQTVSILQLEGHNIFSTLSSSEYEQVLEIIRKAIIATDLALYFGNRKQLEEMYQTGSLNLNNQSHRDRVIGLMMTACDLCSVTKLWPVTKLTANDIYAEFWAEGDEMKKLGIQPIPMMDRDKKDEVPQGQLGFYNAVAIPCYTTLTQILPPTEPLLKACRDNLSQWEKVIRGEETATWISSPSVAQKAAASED

Ki: 0.02 nM
Compound: Cc1ccc([C@H]2C[C@@H]2COc2nc(C)ncc2-c2cnc(C(C)(C)O)cc2C)nc1 [Example 45, 2-(4-Methyl-5-(2-methyl-4-(((1S,2S)-2-(5-methylpyridin-2-yl)cyclopropyl)methoxy)pyrimidin-5-yl)pyridin-2-yl)propan-2-ol]

Ki: 10.3 nM
Compound: COc1ccc([C@H]2C[C@@H]2COc2nc(C)ncc2-c2ccc(C)nn2)nc1 [Example 102, 3-(4-(((1S,2S)-2-(5-methoxypyridin-2-yl)cyclopropyl)methoxy)-2-methylpyrimidin-5-yl)-6-methylpyridazine]

Ki: 1.51 nM
Compound: Cc1ccc([C@H]2C[C@@H]2COc2nc(C)ncc2-c2ccc(OC(C)C)nc2C)nc1 [Example 61, 5-(6-isopropoxy-2-methylpyridin-3-yl)-2-methyl-4-(((1S,2S)-2-(5-methylpyridin-2-yl)cyclopropyl)methoxy)pyrimidine]

Ki: 0.37 nM
Compound: Cc1ccc([C@H]2C[C@@H]2COc2nc(C)ncc2-c2cnc3[nH]ncc3c2)nc1 [Example 142, 5-(2-methyl-4-(((1S,2S)-2-(5-methylpyridin-2-yl)cyclopropyl)methoxy)pyrimidin-5-yl)-1H-pyrazolo[3,4-b]pyridine]

Ki: 0.71 nM
Compound: COc1ccc([C@H]2C[C@@H]2COc2nc(C)ncc2-c2cn(C)[nH]c2=O)nc1 [Example 244, 4-(4-(((1S,2S)-2-(5-methoxypyridin-2-yl)cyclopropyl)methoxy)-2-methylpyrimidin-5-yl)-1-methyl-1,2-dihydropyrazol-3-one]

Ki: 0.38 nM
Compound: Cc1ccnc([C@H]2C[C@@H]2COc2nc(C)ncc2-c2ccc(C(C)(C)O)nc2)c1 (single isomer, unassigned) [Example 177]

Ki: 0.4 nM
Compound: Cc1ccc([C@H]2C[C@@H]2COc2nc(C)ncc2-c2ccncc2C)nc1 [Example 147, 2-methyl-4-(((1S,2S)-2-(5-methylpyridin-2-yl)cyclopropyl)methoxy)-5-(3-methylpyridin-4-yl)pyrimidine]

Ki: 0.16 nM
Compound: CCC(O)c1ccc(-c2cnc(C)nc2OC[C@H]2C[C@@H]2c2ccc(C)cn2)cn1 (stereo partly drawn) [Example 143, 1-(5-(2-methyl-4-(((1S,2S)-2-(5-methylpyridin-2-yl)cyclopropyl)methoxy)pyrimidin-5-yl)pyridin-2-yl)propan-1-ol]

Ki: 3.75 nM
Compound: COc1ccc([C@H]2C[C@@H]2COc2nc(C)ncc2-c2ccnc(N)c2C#N)nc1 [Example 108, 2-amino-4-(4-(((1S,2S)-2 (5-methoxypyridin-2-yl)cyclopropyl)methoxy)-2-methylpyrimidin-5-yl)nicotinonitrile]

Ki: 4.97 nM
Compound: COc1ccc([C@H]2C[C@@H]2COc2nc(C)ncc2-c2ccc(Br)cc2)nc1 [Example 81, 5-(4-bromophenyl)-4-(((1S,2S)-2-(5-methoxypyridin-2-yl)cyclopropyl)methoxy)-2-methylpyrimidine]

Ki: 0.94 nM
Compound: COc1ccc([C@H]2C[C@@H]2COc2nc(C)ncc2-c2ccc(C#N)n2C)nc1 [Example 109, 5-(4-(((1S,2S)-2-(5-methoxypyridin-2-yl)cyclopropyl)methoxy)-2-methylpyrimidin-5-yl)-1-methyl-1H-pyrrole-2-carbonitrile]

Ki: 13.9 nM
Compound: Cc1ccc([C@H]2C[C@@H]2COc2nc(C)ncc2C2=CC(=O)OC2)nc1 [Example 60, 4-(2-methyl-4-(((1S,2S)-2-(5-methylpyridin-2-yl)cyclopropyl)methoxy)pyrimidin-5-yl)furan-2(5H)-one]

Ki: 0.87 nM
Compound: Cc1ccc([C@H]2C[C@@H]2COc2nc(C)ncc2-c2cnc(C)cc2C)nc1 [Example 55, 5-(4,6-dimethylpyridin-3-yl)-2-methyl-4-(((1S,2S)-2-(5-methylpyridin-2-yl)cyclopropyl)methoxy)pyrimidine]

Ki: 2.15 nM
Compound: Cc1ncc(-c2ccc(C(C)(C)O)nc2C)c(OC[C@H]2C[C@@H]2c2ccccn2)n1 [Example 119, 2-(6-methyl-5-(2-methyl-4-(((1S,2S)-2-(pyridin-2-yl)cyclopropyl)methoxy)pyrimidin-5-yl)pyridin-2-yl)propan-2-ol]

Ki: 0.37 nM
Compound: Cc1ccc([C@H]2C[C@@H]2COc2nc(C)ncc2-c2ccc(C(O)C(C)C)nc2)nc1 (stereo partly drawn) [Example 139, 2-methyl-1-(5-(2-methyl-4-(((1S,2S)-2-(5-methylpyridin-2-yl)cyclopropyl)methoxy)pyrimidin-5-yl)pyridin-2-yl)propan-1-ol]

Further lines, the molecule ahead of its results:

Compound: Cc1ncc(-c2ccc(C(C)(C)O)nc2)c(OC[C@H]2C[C@@H]2c2ncccc2C)n1 (single isomer, unassigned) [Example 173]
Ki: 0.51 nM

Compound: Cc1ccc([C@H]2C[C@@H]2COc2nc(C)ncc2C2CCCCC2)nc1 [Example 208, 5-Cyclohexyl-2-methyl-4-(((1S,2S)-2-(5-methylpyridin-2-yl)cyclopropyl)methoxy)pyrimidine]
Ki: 2.28 nM

Compound: Cc1cccc([C@H]2C[C@@H]2COc2nc(C)ncc2C2CCC(=O)CC2)n1 [Example 187, 4-(2-methyl-4-(((1S,2S)-2-(6-methylpyridin-2-yl)cyclopropyl)methoxy)pyrimidin-5-yl)cyclohexanone]
Ki: 18.6 nM

Compound: COc1ccc([C@H]2C[C@@H]2COc2nc(C)ncc2-c2ccc(C3(O)CCCC3)nc2)nc1 [Example 89, 1-(5-(4-(((1S,2S)-2-(5-methoxypyridin-2-yl)cyclopropyl)methoxy)-2-methylpyrimidin-5-yl)pyridin-2-yl)cyclopentanol]
Ki: 0.06 nM

Compound: Cc1ccnc([C@H]2C[C@@H]2COc2nc(C)ncc2-c2ccc(C(C)(C)O)nc2)c1 (single isomer, unassigned) [Example 178]
Ki: 35.6 nM

Compound: Cc1ncc(C2CCC3(CC2)OCCO3)c(OC[C@H]2C[C@H]2c2ccccn2)n1 [Example 198, 2-methyl-4-(((1S,2R)-2-(pyridin-2-yl)cyclopropyl)methoxy)-5-(1,4-dioxaspiro[4.5]decan-8-yl)pyrimidine]
Ki: 27.6 nM

Compound: COc1ccc([C@H]2C[C@@H]2COc2nc(C)ncc2-c2cc(=O)[nH]n2C)nc1 [Example 238, 5-(4-(((1S,2S)-2-(5-methoxypyridin-2-yl)cyclopropyl)methoxy)-2-methylpyrimidin-5-yl)-1-methyl-1,2-dihydropyrazol-3-one]
Ki: 22.9 nM

Compound: COc1ccc([C@H]2C[C@@H]2COc2nc(C)ncc2-c2cnc(C(=O)O)cn2)nc1 [Example 96, 5-(4-(((1S,2S)-2-(5-methoxypyridin-2-yl)cyclopropyl)methoxy)-2-methylpyrimidin-5-yl)pyrazine-2-carboxylic acid]
Ki: 1.26 nM

Compound: CCn1cc(-c2cnc(C)nc2OC[C@H]2C[C@@H]2c2ccc(OC)cn2)nn1 [Example 247, 5-(1-ethyl-1H-1,2,3-triazol-4-yl)-4-(((1S,2S)-2-(5-methoxypyridin-2-yl)cyclopropyl)methoxy)-2-methylpyrimidine]
Ki: 2.43 nM

Compound: Cc1ccc([C@H]2C[C@@H]2COc2nc(C)ncc2-c2ccc(C(O)C(F)(F)F)nc2)nc1 (stereo partly shown) [Example 146]
Ki: 0.25 nM

Compound: COc1ccc([C@H]2C[C@@H]2COc2nc(C)ncc2-c2cc(Cl)ncc2OCOCC[Si](C)(C)C)nc1 [Example 112, 5-(2-chloro-5-((2-(trimethylsilyl)ethoxy)methoxy)pyridin-4-yl)-4-(((1S,2S)-2-(5-methoxypyridin-2-yl)cyclopropyl)methoxy)-2-methylpyrimidine]
Ki: 19.2 nM

Compound: CCOc1cccc(-c2cnc(C)nc2OC[C@H]2C[C@@H]2c2ccc3ccccc3n2)c1 (single isomer, unassigned) [Example 41, 2,2,2-trifluoroacetate]
Ki: 5.08 nM

Compound: Cc1ncc(-c2cnc3[nH]ncc3c2)c(OC[C@H]2C[C@@H]2c2ccc3ccccc3n2)n1 (single isomer, unassigned) [Example 152]
Ki: 1.78 nM

Compound: Cc1ncc(-c2cn(C)nc2CO)c(OC[C@H]2C[C@@H]2c2ccccn2)n1 [Example 116, (1-methyl-4-(2-methyl-4-(((1S,2S)-2-(pyridin-2-yl)cyclopropyl)methoxy)pyrimidin-5-yl)-1H-pyrazol-3-yl)methanol]
Ki: 9.01 nM

Compound: Cc1ncc(-c2ccc3ncc(C)n3c2)c(OC[C@H]2C[C@@H]2c2ccc3ccccc3n2)n1 [Example 129, 2-((1S,2S)-2-((2-methyl-5-(3-methylimidazo[1,2-a]pyridin-6-yl)pyrimidin-4-yloxy)methyl)cyclopropyl)quinoline]
Ki: 0.02 nM

Compound: Cc1ncc(-c2cnc(C(C)(C)O)cc2C)c(OC[C@H]2C[C@@H]2c2ccccn2)n1 [Example 118, 2-(4-methyl-5-(2-methyl-4-(((1S,2S)-2-(pyridin-2-yl)cyclopropyl)methoxy)pyrimidin-5-yl)pyridin-2-yl)propan-2-ol]
Ki: 0.1 nM

Compound: COc1ccc([C@H]2C[C@@H]2COc2nc(C)ncc2-c2cnc(CO)cn2)nc1 [Example 98, (5-(4-(((1S,2S)-2-(5-methoxypyridin-2-yl)cyclopropyl)methoxy)-2-methylpyrimidin-5-yl)pyrazin-2-yl)methanol]
Ki: 12 nM

Compound: COc1ccc([C@H]2C[C@@H]2COc2nc(C)ncc2-c2ccc(C3(O)COC3)nc2)nc1 [Example 91]
Ki: 0.16 nM

Compound: Cc1ncc(-c2cccnc2)c(OC[C@H]2C[C@@H]2c2ccc3ccccc3n2)n1 [Example 155, 2-((1S,2S)-2-((2-methyl-5-(pyridin-3-yl)pyrimidin-4-yloxy)methyl)cyclopropyl)quinoline]
Ki: 0.01 nM

Compound: COc1ccc([C@H]2C[C@@H]2COc2nc(C)ncc2-c2ccc(-c3ncno3)cc2)nc1 [Example 93, 5-(4-(4-(((1S,2S)-2-(5-methoxypyridin-2-yl)cyclopropyl)methoxy)-2-methylpyrimidin-5-yl)phenyl)-1,2,4-oxadiazole]
Ki: 0.15 nM

Compound: COc1ccc([C@H]2C[C@@H]2COc2nc(C)ncc2-c2ccc(C(=O)NCC(F)(F)F)nc2)nc1 [Example 104, 5-(4-(((1S,2S)-2-(5-methoxypyridin-2-yl)cyclopropyl)methoxy)-2-methylpyrimidin-5-yl)-N-(2,2,2-trifluoroethyl)picolinamide]
Ki: 0.67 nM

Compound: COc1ccc([C@H]2C[C@@H]2COc2nc(C)ncc2-c2ccc(C(=O)NCCO)cc2)nc1 [Example 107, N-(2-hydroxyethyl)-4-(4-(((1S,2S)-2-(5-methoxypyridin-2-yl)cyclopropyl)methoxy)-2-methylpyrimidin-5-yl)benzamide]
Ki: 1.06 nM
